Data set [1] can be described thus: Solubility of compound in water. In kind it is physicochemical. As to conditions: buffer; call rule not given here.
The nature of data set [2]: Partition coefficient, log P of the compound. In kind it is physicochemical. As to conditions: octanol/water.
The test system of another data set is THP-1. Description: Membrane penetration of compound in human THP1 cells assessed as membrane binding. It counts as ADME, cell-based.

Regarding `OCCCCNc1ccc2nc(-c3ccc(F)cc3)c(-c3ccncc3)n2c1`, the solubility entry in data set [1] is reported as “Insoluble”. Also, the log partition coefficient (logP) in data set [2] came to 2.3. The Activity result with THP-1 is given as “Not Active”.

Take `OCCNc1ccc2nc(-c3ccc(F)cc3)c(-c3ccncc3)n2c1`: the solubility result in data set [1] is recorded as “Insoluble”. Further, in data set [2], the lipophilicity (logP) is 1.75. Further, the Activity result with THP-1 is given as “Not Active”.

As to `OCCCCCCNc1ccc2nc(-c3ccc(F)cc3)c(-c3ccncc3)n2c1`, the solubility result in data set [1] is “Soluble”. Moreover, the logP in data set [2] amounted to 3.2. Also, the result in the data set on THP-1 was Active.

These data come from ChEMBL document CHEMBL1153565, “Physicochemical properties and membrane interactions of anti-apoptotic derivatives 2-(4-fluorophenyl)-3-(pyridin-4-yl)imidazo[1,2-a]pyridine depending on the hydroxyalkylamino side chain length and conformation: an NMR and ESR study” (Eur J Med Chem, 2009).
